Measured values reported in patent US11479571B2 (priority 2016, dated 2022).

Columns and labels:
[1] = tested on: Vesicular stomatitis virus (VSV) particles encoding luciferase and pseudotyped with EboV GP; assay: microbe, parasite or virus in culture; assay type: cell-based, Ebola virus; settings: for inhibition at 10 µM: compound concentration 10 μM; for inhibition at 2 µM: compound concentration 2 μM

Which melting point does the source give for `O=C(OCc1ccccc1)N1CCN(C(=O)c2ccc3nc(-c4ccccn4)[nH]c3c2)CC1` here?
Its melting point is 165 °C.

For `FC(F)(F)c1ccc(CN2CCN(Cc3ccc4nc(-c5ccccc5)[nH]c4c3)CC2)cc1`, which melting point is on record?
Its melting point is 178 °C.

With `FC(F)(F)c1ccc(CN2CCN(Cc3ccc4nc(-c5cccnc5)[nH]c4c3)CC2)cc1` as the compound, how does the melting point read?
The melting point was 138 °C.

With `O=C(c1ccc2nc(-c3ccccc3)[nH]c2c1)N1CCN(Cc2ccc(C(F)(F)F)cc2)CC1` as the compound, how does the melting point read?
Its melting point is 220 °C.

Which melting point does the source give for `O=C(c1ccc2nc(C(c3ccccc3)c3ccccc3)[nH]c2c1)N1CCN(Cc2ccc(C(F)(F)F)cc2)CC1` here?
The melting point was 148 °C.

For `FC(F)(F)Oc1cccc(CN2CCN(Cc3ccc4nc(C(c5ccccc5)c5ccccc5)[nH]c4c3)CC2)c1`, which melting point is on record?
The melting point was 86 °C.

For `FC(F)(F)Oc1cccc(CN2CCN(Cc3ccc4nc(-c5cccnc5)[nH]c4c3)CC2)c1`, which melting point is on record?
The melting point was 110 °C.

With `FC(F)(F)Oc1cccc(CN2CCN(Cc3ccc4nc(-c5ccccn5)[nH]c4c3)CC2)c1` as the compound, how does the melting point read?
Its melting point is 65 °C.

Which melting point does the source give for `O=C(c1ccc2nc(C(c3ccccc3)c3ccccc3)[nH]c2c1)N1CCN(Cc2cccc(OC(F)(F)F)c2)CC1` here?
The melting point was 76 °C.

Which melting point does the source give for `O=C(c1ccc2nc(-c3ccccn3)[nH]c2c1)N1CCN(Cc2cccc(OC(F)(F)F)c2)CC1` here?
Its melting point is 100 °C.

For `FC(F)(F)Oc1ccc(CN2CCN(Cc3ccc4nc(-c5cccnc5)[nH]c4c3)CC2)cc1`, which melting point is on record?
The melting point was 88 °C.

For `FC(F)(F)Oc1ccc(CN2CCN(Cc3ccc4nc(-c5ccccn5)[nH]c4c3)CC2)cc1`, which melting point is on record?
Its melting point is 64 °C.

Which melting point does the source give for `O=C(c1ccc2nc(C(c3ccccc3)c3ccccc3)[nH]c2c1)N1CCN(Cc2ccc(OC(F)(F)F)cc2)CC1` here?
The melting point was 120 °C.

With `O=C(c1ccc2nc(-c3ccccn3)[nH]c2c1)N1CCN(Cc2ccc(OC(F)(F)F)cc2)CC1` as the compound, how does the melting point read?
Its melting point is 190 °C.

With `Cc1ccc(NC(=O)N2CCN(Cc3ccc4nc(-c5cccnc5)[nH]c4c3)CC2)cc1` as the compound, how does the melting point read?
Its melting point is 174 °C.

With `O=C(Nc1ccc(C(F)(F)F)cc1)N1CCN(Cc2ccc3nc(C(c4ccccc4)c4ccccc4)[nH]c3c2)CC1` as the compound, how does the melting point read?
The melting point was 172 °C.

With `O=C(COc1ccc(Cl)cc1)N1CCN(Cc2ccc3nc(C(c4ccccc4)c4ccccc4)[nH]c3c2)CC1` as the compound, how does the melting point read?
The melting point was 194 °C.

Which melting point does the source give for `O=C(COc1ccc(Cl)cc1)N1CCN(Cc2ccc3nc(-c4ccccn4)[nH]c3c2)CC1` here?
Its melting point is 138 °C.

With `COC(=O)c1ccc(COc2ccccc2CN2CCN(Cc3ccc4nc(-c5ccccc5)[nH]c4c3)CC2)cc1` [Compound E11, N1-[[2-[(4-methoxycarbonylphenyl)methoxy]phenyl]methyl]-N4-[(2-phenyl-benzimidazol-5-yl)methyl]-piperazine] as the compound, how does the inhibition at 10 µM [1] read?
The inhibition at 10 µM was 95%.

Which inhibition at 10 µM [1] does the source give for `COC(=O)c1ccc(COc2ccccc2CN2CCN(Cc3ccc4nc(-c5ccccn5)[nH]c4c3)CC2)cc1` [Compound E14, N1-[[2-[(4-methoxycarbonylphenyl)methoxy]phenyl]methyl]-N4-[[2-(2-pyridyl)-benzimidazol-5-yl]methyl]-piperazine] here?
The inhibition at 10 µM was 80%.

Which inhibition at 2 µM [1] does the source give for `COC(=O)c1ccc(COc2ccccc2CN2CCN(Cc3ccc4nc(-c5ccc(C(F)(F)F)cc5)[nH]c4c3)CC2)cc1` [Compound E15, N1-[[2-[4-(trifluoromethyl)phenyl]-benzimidazol-5-yl]methyl]-N4-[[2-[(4-methoxycarbonylphenyl)methoxy]phenyl]methyl]-piperazine] here?
The inhibition at 2 µM was 2%.

What about the inhibition at 10 µM [1] of the same compound?
The inhibition at 10 µM was 93.5%.

Which inhibition at 2 µM [1] does the source give for `COC(=O)c1ccc(COc2ccccc2CN2CCN(Cc3ccc4nc(-c5cccc(C(F)(F)F)c5)[nH]c4c3)CC2)cc1` [Compound E16, N1-[[2-[3-(trifluoromethyl)phenyl]-benzimidazol-5-yl]methyl]-N4-[[2-[(4-methoxycarbonylphenyl)methoxy]phenyl]methyl]-piperazine] here?
The inhibition at 2 µM was 64.1%.

And the inhibition at 10 µM [1]?
Its inhibition at 10 µM is 91.6%.

What about the melting point of the same compound?
The melting point was 102 °C.

Which inhibition at 10 µM [1] does the source give for `COC(=O)c1ccc(COc2ccccc2CN2CCN(C(=O)c3ccc4nc(-c5ccccc5)[nH]c4c3)CC2)cc1` [Compound E17, N1-[[2-[(4-methoxycarbonylphenyl)methoxy]phenyl]methyl]-N4-(2-phenyl-benzimidazole-5-carbonyl)-piperazine] here?
The inhibition at 10 µM was less than 20%.

And the melting point?
Its melting point is 255 °C.

For `COC(=O)c1ccc(COc2ccccc2CN2CCN(C(=O)c3ccc4nc(C(c5ccccc5)c5ccccc5)[nH]c4c3)CC2)cc1` [Compound E18, N1-(2-benzhydryl-benzimidazole-5-carbonyl)-N4-[[2-[(4-methoxycarbonylphenyl)methoxy]phenyl]methyl]-piperazine], which inhibition at 10 µM [1] is on record?
Its inhibition at 10 µM is less than 20%.

And the melting point?
Its melting point is 196 °C.

For `COC(=O)c1ccc(COc2ccccc2CN2CCN(C(=O)c3ccc4nc(-c5cccnc5)[nH]c4c3)CC2)cc1` [Compound E19, N1-[[2-[(4-methoxycarbonylphenyl)methoxy]phenyl]methyl]-N4-[2-(3-pyridyl)-benzimidazole-5-carbonyl]-piperazine], which inhibition at 10 µM [1] is on record?
The inhibition at 10 µM was less than 20%.

What does the source list for `COC(=O)c1ccc(COc2ccccc2CN2CCN(C(=O)c3ccc4nc(-c5ccccn5)[nH]c4c3)CC2)cc1` [Compound E20, N1-[[2-[(4-methoxycarbonylphenyl)methoxy]phenyl]methyl]-N4-[2-(2-pyridyl)-benzimidazole-5-carbonyl]-piperazine]?
inhibition at 10 µM [1]: < 20%; melting point: 96 °C

For `FC(F)(F)c1ccc(CN2CCN(Cc3ccc4nc(C(c5ccccc5)c5ccccc5)[nH]c4c3)CC2)cc1` [Compound E22, N1-[(2-benzhydryl-benzimidazol-5-yl)methyl]-N4-[4-(trifluoromethyl)benzyl]-piperazine], which inhibition at 2 µM [1] is on record?
Its inhibition at 2 µM is less than 20%.

And the inhibition at 10 µM [1]?
The inhibition at 10 µM was 80%.

And the melting point?
The melting point was 236 °C.

With `FC(F)(F)Oc1cccc(CN2CCN(Cc3ccc4nc(-c5ccccc5)[nH]c4c3)CC2)c1` [Compound E29, N1-[3-(trifluoromethoxy)benzyl]-N4-[(2-phenyl-benzimidazol-5-yl)methyl]-piperazine] as the compound, how does the inhibition at 2 µM [1] read?
The inhibition at 2 µM was less than 20%.

And the inhibition at 10 µM [1]?
The inhibition at 10 µM was 80%.

What about the melting point of the same compound?
Its melting point is 80 °C.

Which results are given for `O=C(Nc1ccc(C(F)(F)F)cc1)N1CCN(Cc2ccc3nc(-c4ccccn4)[nH]c3c2)CC1` [Compound E52, N1-[[2-(2-pyridyl)-benzimidazol-5-yl]methyl]-N4-[[4-(trifluoromethyl)phenyl]carbamoyl]-piperazine]?
inhibition at 2 µM [1]: 64.3%; inhibition at 10 µM [1]: 82.9%

With `CCOP(=O)(Cc1ccc(COc2ccccc2CN2CCN(Cc3ccc4nc(-c5cccc(C(F)(F)F)c5)[nH]c4c3)CC2)cc1)OCC` [Compound E57] as the compound, how does the inhibition at 10 µM [1] read?
Its inhibition at 10 µM is less than 20%.

For `CCOP(=O)(Cc1cccc(COc2ccccc2CN2CCN(Cc3ccc4nc(-c5cccc(C(F)(F)F)c5)[nH]c4c3)CC2)c1)OCC` [Compound E59], which inhibition at 10 µM [1] is on record?
The inhibition at 10 µM was less than 20%.
